Assay results from patent publication US10808007B2, “Desacetoxytubulysin H and analogs thereof” (WILLIAM MARSH RICE UNIVERSITY, priority 2015, dated 2020).

Key:
Format in all cases: cell-based
[1] = tested on: HEK 293T (human embryonic kidney cells); experiment: Cytotoxic assay (CellTiter-Glo, 72 h), HEK 293T; details: Homo sapiens, HEK-293T, 72 h, read-out: IC50 HEK 293T
[2] = tested on: MES SA (uterine sarcoma cells); experiment: Cytotoxic assay (CellTiter-Glo, 72 h), MES SA; details: Homo sapiens, MES-SA, 72 h, read-out: IC50 MES SA
[3] = tested on: MES SA DX (multidrug resistant uterine sarcoma cells); experiment: Cytotoxic assay (CellTiter-Glo, 72 h), MES SA DX; details: Homo sapiens
[4] = tested on: NCI-60 human cancer cell line panel; experiment: NCI-60 one-dose test; details: one-dose test (10 μM), NCI-60 panel
Experimental: (§1) A number of the synthesized compounds (i.e. Tb1-Tb23) were evaluated for their activity against a variety of cancer cell lines, namely the NCI-60 human cancer cell line panel representing leukemia, melanoma, lung, colon, brain, ovary, breast, prostate and kidney types of cancer through the In Vitro Cell Line Screening Project (IVCLSP) of the National Cancer Institute (NCI), and a summary of the results is shown in Table 1. […] As there was interest in the activity in certain other cell lines, these and the remaining compounds (Tb1-Tb41, PTb-D42 and PTb-D43) were subjected to further testing against MES SA (uterine sarcoma cells), MES SA DX (multidrug resistant uterine sarcoma cells), and HEK 293T (human embryonic kidney cells). […] Tubulysins are known to be substrates for Pgp pumps (Xiangming, et al., 2013; Kaur, et al., 2006; Szakacs, et al., 2006) as supported by the observed low activities of all tubulysins tested except Tb28, Tb32 and Tb33.

[5] = tested on: non-small cell lung cancer cell lines; experiment: NCI-60 cytotoxicity, non-small cell lung cancer; details: Homo sapiens; NCI-60, selected value
Experimental: as §1

[6] = tested on: colon cancer cell lines; experiment: NCI-60 cytotoxicity, colon cancer; details: Homo sapiens; NCI-60, selected value
Experimental: as §1

[7] = tested on: melanoma cell lines; experiment: NCI-60 cytotoxicity, melanoma; details: Homo sapiens; NCI-60, selected value
Experimental: as §1

[8] = tested on: breast cancer cell lines; experiment: NCI-60 cytotoxicity, breast cancer; details: Homo sapiens; NCI-60, selected value
Experimental: as §1

[9] = tested on: renal cancer cell lines; experiment: NCI-60 cytotoxicity, renal cancer; details: Homo sapiens; NCI-60, selected value
Experimental: as §1

[10] = tested on: ovarian cancer cell lines; experiment: NCI-60 cytotoxicity, ovarian cancer; details: Homo sapiens; NCI-60, selected value
Experimental: as §1

[11] = tested on: prostate cancer cell lines; experiment: NCI-60 cytotoxicity, prostate cancer; details: Homo sapiens; NCI-60, selected value
Experimental: as §1

[12] = tested on: CNS cancer cell lines; experiment: NCI-60 cytotoxicity, CNS cancer; details: Homo sapiens; NCI-60, selected value
Experimental: as §1

[13] = tested on: leukemia cancer cell lines; experiment: NCI-60 cytotoxicity, leukemia; details: Homo sapiens; NCI-60, selected value
Experimental: as §1

SMILES | IC50 [1] [nM] | IC50 [2] [nM] | IC50 [3] [nM] | one dose, mean growth % [4] [%] | GI50 [5] [nM] | GI50 [6] [nM] | GI50 [7] [nM] | GI50 [8] [nM] | GI50 [9] [nM] | GI50 [10] [nM] | GI50 [11] [nM] | GI50 [12] [nM] | GI50 [13] [nM]
COC(=O)[C@@H](C)C[C@H](Cc1ccccc1)NC(=O)c1csc([C@@H](C[C@H](C(C)C)N(C)C(=O)[C@@H](NC(=O)C23CC(NC(C)=O)(C2)C3)C2CC2)OC(C)=O)n1 [Tb22, Methyl (2S,4R)-4-(2-((1R,3R)-3-((S)-2-(3-acetamidobicyclo[1.1.1]pentane-1-carboxamido)-2-cyclopropyl-N-methylacetamido)-1-acetoxy-4-methylpentyl)thiazole-4-carboxamido)-2-methyl-5-phenylpentanoate] | > 50 | > 50 | > 50 | 49.38 | – | – | – | – | – | – | – | – | –
CCC(C)[C@H](NC(=O)[C@H]1CCCCN1C)C(=O)N(C)[C@H](C(=O)NC12CC(C(=O)N[C@@H](Cc3ccccc3)C[C@H](C)C(=O)OC)(C1)C2)C(C)C (stereo in doubt) [Tb19, Methyl (2S,4R)-4-(3-((S)-2-((2S,3S)—N,3-dimethyl-2-((R)-1-methylpiperidine-2 carboxamido)pentan amido)-3-methylbutanamido)bicyclo[1.1.1]pentane-1-carboxamido)-2-methyl-5-phenylpentanoate] | > 50 | > 50 | > 50 | 100.82 | – | – | – | – | – | – | – | – | –
CC[C@@H](C)[C@H](NC(=O)CN(C)C)C(=O)N(C)[C@H](C[C@@H](OC(C)=O)c1nc(C(=O)NC23CC(C(=O)OC)(C2)C3)cs1)C(C)C [Tb16] | > 50 | > 50 | > 50 | – | 85 | 98.1 | 46.1 | 123 | 186 | 99.1 | 303 | 127 | 15.1
CC[C@H](C)[C@H](NC(=O)C12CC(NC(C)=O)(C1)C2)C(=O)N(C)[C@H](C[C@@H](OC(C)=O)c1nc(C(=O)N[C@@H](Cc2ccccc2)C[C@H](C)C(=O)OC)cs1)C(C)C [Tb7, Methyl (2S,4R)-4-(2-((1R,3R)-3-((2S,3S)-2-(3-acetamidobicyclo[1.1.1]pentane-1-carboxamido)-N,3-dimethylpentanamido)-1-acetoxy-4-methylpentyl)thiazole-4-carboxamido)-2-methyl-5-phenyl-pentanoate] | > 50 | > 50 | > 50 | – | 57.8 | 61.3 | 31.4 | 42.8 | 134 | 48.5 | 105 | 219 | 17.6
CC[C@H](C)[C@H](NC(=O)N[C@@H](C)c1ccccc1)C(=O)N(C)[C@H](C[C@@H](OC(C)=O)c1nc(C(=O)N[C@@H](Cc2ccccc2)C[C@H](C)C(=O)OC)cs1)C(C)C [Tb4, (2S,4R)-Methyl 4-(2-((2S,6S,9R,1 IR)-6-((S)-sec-butyl)-9-isopropyl-8-methyl-4,7,13-trioxo-2-phenyl-12-oxa-3,5,8-tri-azatetradecan-11-yl)thiazole-4-carboxamido)-2-methyl-5-phenylpentanoate] | > 50 | > 50 | > 50 | – | > 1000 | > 1000 | > 1000 | > 1000 | > 1000 | > 1000 | > 1000 | > 1000 | > 1000
CCC(C)[C@H](NC(=O)CN(C)C)C(=O)N(C)[C@H](C[C@@H](OC(C)=O)c1nc(C(=O)NC23C4C5C2C2C3C4C52C(=O)OC)cs1)C(C)C (stereo in doubt) [Tb13, Methyl 4-(2-((6S,9R,11R)-6-((S)-sec-butyl)-9-isopropyl-2,8-dimethyl-4,7,13-trioxo-12-oxa-2,5,8-triaza-tetradecan-11-yl)thiazole-4-carboxamido)cubane-1-carboxylate] | > 50 | > 50 | > 50 | – | 142 | 122 | 40.2 | 136 | 167 | 111 | 167 | 117 | 13.8
